Reference: patent US20110263593A1, “NOVEL IMIDAZO[1,2-a]PYRIMIDINE DERIVATIVES, METHOD FOR THE PREPARATION THEREOF, USE THEREOF AS MEDICAMENTS, PHARMACEUTICAL COMPOSITIONS AND NOVEL USE, IN PARTICULAR AS MET INHIBITORS” (sanofi-aventis, priority 2008, published 2011)

How the values were obtained:
[1] = test system: HCT116 cells and MKN45 cells; assay: Test C: measurement of cell proliferation by 14C-thymidine pulse; assay type: cell-based; details: 14C-thymidine incorporation, 96 h of treatment; cell line not stated (HCT116 and MKN45 in method)
Method: C) Test C: Measurement of cell proliferation by ^14C-thymidine pulse
The cells are seeded into Cytostar 96-well plates in 180 μl for 4 hours at 37° C. and 5% CO2: HCT116 cells at a rate of 2500 cells per well in DMEM medium+10% foetal calf serum+1% L-glutamine and MKN45 cells at a rate of 7500 cells per well in RPMI medium+10% foetal calf serum+1% L-glutamine. After these 4 hours of incubation, the products are added in 10 μl as a 20-fold concentrated solution according to the dilution method mentioned for the ELISA. The products are tested at 10 concentrations in duplicate from 10 000 nM to 0.3 nM with an increment of 3.
After treatment for 72 h, add 10 μl of ^14C-thymidine at 10 μCi/ml to obtain 0.1 μCi per well. The ^14C-thymidine incorporation is measured on a Micro-Beta machine (Perkin-Elmer) after 24 hours of pulse and 96 h of treatment.
All the stages of the assay are automated on BIOMEK 2000 or TECAN stations.

MET [2] = molecular target: T1, MET (Homo sapiens, UniProt P08581); assay: Test B: inhibition of the autophosphorylation of MET, ELISA technique (pppY1230, 1234, 1235) in MKN45 cells; assay type: cell-based; parameters: endogenous in cells; host or cells: MKN45 cells; details: 1 h treatment, phosphoMET ELISA
Method: B) Test B: Inhibition of the Autophosphorylation of MET; ELISA Technique (pppY1230, 1234, 1235)
a) Cell lysates: Seed MKN45 cells into 96-well plates (Cell coat BD polylysine) at 20 000 cells/well in 200 μl in RPMI medium+10% FCS+1% L-glutamine. Leave to adhere for 24 hours in an incubator.
The cells are treated the day after seeding with the products at 6 concentrations in duplicate for 1 h. At least 3 control wells are treated with the same final amount of DMSO.
Product dilution: Stock at 10 mM in pure DMSO—range from 10 mM to 30 μM with an increment of 3 in pure DMSO—intermediate 1/50 dilutions in culture medium and then removal of 10 μl added directly to the cells (200 μl): final range from 10 000 to 30 nM.
At the end of the incubation, carefully remove the supernatant and rinse with 200 μl of PBS. Next, place 100 μl of lysis buffer directly in the wells on ice and incubate at 4° C. for 30 minutes. Lysis buffer: 10 mM Tris HCl, pH 7.4, 100 mM NaCl, 1 mM EDTA, 1 mM EGTA, 1% Triton X-100, 10% glycerol, 0.1% SDS, 0.5% deoxycholate, 20 mM NaF, 2 mM Na3VO4, 1 mM PMSF and cocktail of antiproteases.
The 100 μl of lysates are transferred into a V-bottomed polypropylene plate and the ELISA is performed immediately, or the plate is frozen at −80° C.
b) PhosphoMET ELISA BioSource Kit KH00281
Into each well of the kit plate, add 70 μl of kit dilution buffer+30 μl of cell lysate or 30 μl of lysis buffer for the blanks. Incubate for 2 h with gentle agitation at ambient temperature.
Rinse the wells 4 times with 400 μl of kit washing buffer. Incubate with 100 μl of anti-phospho MET antibody for 1 hour at ambient temperature.
Rinse the wells 4 times with 400 μl of kit washing buffer. Incubate with 100 μl of anti-rabbit HRP antibody for 30 minutes at ambient temperature (except for the wells of chromogen alone).
Rinse the wells 4 times with 400 μl of kit washing buffer. Introduce 100 μl of chromogen and incubate for 30 minutes in the dark at ambient temperature.
Stop the reaction with 100 μl of stop solution. Read without delay at […], 0.1 second on Wallac Victor plate reader.
Target sequence in this assay (P08581 25-1390): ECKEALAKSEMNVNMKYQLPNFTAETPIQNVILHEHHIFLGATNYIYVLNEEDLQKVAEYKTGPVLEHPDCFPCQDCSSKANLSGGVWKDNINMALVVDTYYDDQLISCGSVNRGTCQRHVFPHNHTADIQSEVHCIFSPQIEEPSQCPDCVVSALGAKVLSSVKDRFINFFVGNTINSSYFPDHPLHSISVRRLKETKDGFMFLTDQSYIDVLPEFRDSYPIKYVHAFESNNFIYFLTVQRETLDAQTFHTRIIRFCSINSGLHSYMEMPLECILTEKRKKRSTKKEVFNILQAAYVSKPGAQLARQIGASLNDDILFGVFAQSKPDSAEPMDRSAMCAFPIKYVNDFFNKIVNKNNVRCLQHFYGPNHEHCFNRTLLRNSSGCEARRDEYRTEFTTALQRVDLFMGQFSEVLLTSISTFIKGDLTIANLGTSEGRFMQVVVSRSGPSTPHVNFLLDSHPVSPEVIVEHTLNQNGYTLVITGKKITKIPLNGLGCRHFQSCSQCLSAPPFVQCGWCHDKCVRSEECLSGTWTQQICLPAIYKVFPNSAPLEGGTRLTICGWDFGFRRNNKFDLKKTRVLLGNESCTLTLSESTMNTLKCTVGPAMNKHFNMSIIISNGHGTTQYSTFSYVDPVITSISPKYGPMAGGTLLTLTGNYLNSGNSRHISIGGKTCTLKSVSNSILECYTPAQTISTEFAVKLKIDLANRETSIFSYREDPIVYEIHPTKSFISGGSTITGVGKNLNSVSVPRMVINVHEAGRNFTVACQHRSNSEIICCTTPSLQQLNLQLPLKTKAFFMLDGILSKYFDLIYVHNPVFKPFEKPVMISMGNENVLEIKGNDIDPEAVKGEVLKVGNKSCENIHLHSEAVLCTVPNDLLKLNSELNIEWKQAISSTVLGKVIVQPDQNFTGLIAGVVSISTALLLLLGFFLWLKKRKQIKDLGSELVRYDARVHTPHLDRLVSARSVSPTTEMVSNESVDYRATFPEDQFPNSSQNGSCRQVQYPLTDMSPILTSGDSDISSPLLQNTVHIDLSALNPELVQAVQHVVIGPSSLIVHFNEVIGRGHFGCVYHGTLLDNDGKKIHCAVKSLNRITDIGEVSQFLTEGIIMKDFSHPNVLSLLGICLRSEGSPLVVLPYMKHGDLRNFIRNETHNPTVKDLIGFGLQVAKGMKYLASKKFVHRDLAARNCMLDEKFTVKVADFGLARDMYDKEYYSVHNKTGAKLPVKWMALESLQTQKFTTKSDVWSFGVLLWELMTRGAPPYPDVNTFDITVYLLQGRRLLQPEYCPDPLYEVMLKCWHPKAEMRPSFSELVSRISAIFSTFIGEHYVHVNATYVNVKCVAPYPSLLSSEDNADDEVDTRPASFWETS

MET [3] = molecular target: T1, MET; assay: Test A: HTRF MET assay in 96-well format; assay type: biochemical; parameters: The His-Tev-MET (956-1390) recombinant DNA in pFastBac (Invitrogen) is transfected into insect cells; His (N, cleaved yes); Tev cleavage site (N, cleaved yes); made in house; host or cells: SF21 insect cells (baculovirus, pFastBac); details: 5 nM MET, 10 μM ATP
Method: I) Expression and Purification of MET, Cytoplasmic Domain
The His-Tev-MET (956-1390) recombinant DNA in pFastBac (Invitrogen) is transfected into insect cells and, after several viral amplification stages, the final baculovirus stock is tested for the expression of the protein of interest.
After infection for 72 h at 27° C. with the recombinant virus, the SF21 cell cultures are harvested by centrifugation and the cell pellets are stored at −80° C.
The cell pellets are resuspended in lysis buffer (buffer A [50 mM HEPES, pH 7.5, 250 mM NaCl, 10% glycerol, 1 mM TECP]; + cocktail of protease inhibitors, Roche Diagnostics, without EDTA, ref. 1873580), stirred at 4° C. until the mixture is homogeneous and then lysed mechanically using a “Dounce” type apparatus.
After centrifugation, the lysis supernatant is incubated for 2 h at 4° C. with nickel chelate resin (His-Trap 6 Fast Flow™, GE HealthCare). After washing with 20 volumes of buffer A, the suspension is packed into a column, and the proteins are eluted with a gradient of buffer B (buffer A+290 mM imidazole).
The fractions comprising the protein of interest for the purpose of electrophoretic analysis (SDS PAGE) are combined, concentrated by ultrafiltration (10 kDa cut-off) and injected onto an exclusion chromatography column (Superdex™ 200, GE HealthCare) equilibrated in buffer A.
After enzymatic cleavage of the histidine tag, the protein is reinjected onto a new IMAC nickel chelate chromatography column (His-Trap 6 Fast Flow™, GE HealthCare) equilibrated in buffer A. The fractions eluted with a gradient of buffer B and comprising the protein of interest after electrophoresis (SDS PAGE) are finally combined and conserved at −80° C.
For the production of autophosphorylated protein, the previous fractions are incubated for 1 h at ambient temperature after the addition of 2 mM ATP, 2 mM MgCl2, and 4 mM Na3VO4. After the reaction has been stopped with 5 mM of EDTA, the reaction mixture is injected onto a HiPrep desalifying column (GE HealthCare) preequilibrated in buffer A+4 mM Na3VO4, and the fractions comprising the protein of interest (SDS PAGE analysis) are combined and stored at −80° C. The degree of phosphorylation is verified by mass spectrometry (LC-MS) and by peptide mapping.
A) Test A: HTRF MET Assay in 96-Well Format
MET at a final concentration of 5 nM is incubated in a final volume of 50 μl of enzymatic reaction in the presence of the test molecule (for a final concentration range of from 0.17 nM to 10 μM, 3% DMSO final concentration) in 10 mM MOPS buffer, pH 7.4, 1 mM DTT, 0.01% Tween 20. The reaction is initiated with the substrate solution to obtain final concentrations of 1 μg/ml poly-(GAT), 10 μM ATP and 5 mM MgCl2. After incubation for 10 min at ambient temperature, the reaction is stopped with a 30 μl mix so as to obtain a final solution of 50 mM Hepes, pH 7.5, 500 mM potassium fluoride, 0.1% BSA and 133 mM EDTA in the presence of 80 ng of streptavidin 61SAXLB Cis-Bio Int. and 18 ng of anti-phosphotyrosine Mab PT66-Europium Cryptate per well. After incubation for 2 hours at ambient temperature, the reading is taken at 2 wavelengths, 620 nm and 665 nm, on a reader for the TRACE/HTRF technique and the % inhibition is calculated from the 665/620 ratios.
Target sequence in this assay (P08581 956-1390): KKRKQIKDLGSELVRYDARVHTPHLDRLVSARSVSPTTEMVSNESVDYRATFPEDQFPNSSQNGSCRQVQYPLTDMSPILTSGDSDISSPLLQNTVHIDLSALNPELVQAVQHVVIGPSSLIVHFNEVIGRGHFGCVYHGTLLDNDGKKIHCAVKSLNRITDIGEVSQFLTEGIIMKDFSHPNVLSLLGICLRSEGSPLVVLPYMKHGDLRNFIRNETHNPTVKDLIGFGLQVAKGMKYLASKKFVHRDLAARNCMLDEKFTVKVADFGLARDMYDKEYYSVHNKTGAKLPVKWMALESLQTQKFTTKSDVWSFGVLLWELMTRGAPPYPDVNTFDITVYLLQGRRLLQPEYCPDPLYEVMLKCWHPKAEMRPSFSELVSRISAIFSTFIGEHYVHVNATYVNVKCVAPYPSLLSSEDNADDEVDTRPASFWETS

Row | IC50 [1] | melting point | IC50 (MET [2]) | IC50 (MET [3]) | Compound
1 | < 1000 nM | > 260 °C | < 100 nM | < 100 nM | O=C(Nc1nc2ccc(Sc3cnc4ncc(NCc5ccccc5)cn34)cc2s1)C1CC1 [Example 26, N-(6-{[6-(benzylamino)imidazo[1,2-a]pyrimidin-3-yl]sulphanyl}-1,3-benzothiazol-2-yl)cyclopropanecarboxamide]
2 | < 1000 nM | > 260 °C | < 100 nM | < 100 nM | O=C(NCCN1CCCC1)Nc1nc2ccc(Sc3cnc4ncccn34)cc2s1 [Example 5, 1-[6-(imidazo[1,2-a]pyrimidin-3-ylsulphanyl)-1,3-benzothiazol-2-yl]-3-[2-(pyrrolidin-1-yl)ethyl]urea]
3 | < 1000 nM | 232 °C | < 100 nM | < 100 nM | O=C(Nc1nc2ccc(S(=O)(=O)c3cnc4ncccn34)cc2s1)C1CC1 [Example 7, N-[6-(imidazo[1,2-a]pyrimidin-3-ylsulphonyl)-1,3-benzothiazol-2-yl]cyclopropanecarboxamide]
4 | < 1000 nM | > 260 °C | < 100 nM | < 100 nM | CC(=O)Nc1nc2ccc(Sc3cnc4ncccn34)cc2s1 [Example 3, N-[6-(imidazo[1,2-a]pyrimidin-3-ylsulphanyl)-1,3-benzothiazol-2-yl]acetamide]
5 | < 1000 nM | > 264 °C | < 100 nM | < 100 nM | Nc1nc2cc(F)c(Sc3cnc4ncccn34)cc2s1 [Example 19, 5-fluoro-6-(imidazo[1,2-a]pyrimidin-3-ylsulphanyl)-1,3-benzothiazol-2-amine]
6 | < 1000 nM | > 260 °C | < 500 nM | < 100 nM | CC(C)(C)OC(=O)NCC(=O)Nc1nc2ccc(Sc3cnc4ncccn34)cc2s1 [Example 11, 2-methylpropan-2-yl(2-{[6-(imidazo[1,2-a]pyrimidin-3-ylsulphanyl)-1,3-benzothiazol-2-yl]amino}-2-oxoethyl)carbamate]
7 | < 1000 nM | 270 °C | < 500 nM | < 100 nM | O=C(Nc1nc2ccc(Sc3cnc4ncccn34)cc2s1)C1CCOCC1 [Example 27, N-[6-(imidazo[1,2-a]pyrimidin-3-ylsulphanyl)-1,3-benzothiazol-2-yl]tetrahydro-2H-pyran-4-carboxamide]
8 | < 1000 nM | 180 °C | < 500 nM | < 100 nM | CCN(CC)CC(=O)Nc1nc2ccc(Sc3cnc4ncccn34)cc2s1 [Example 17, N2,N2-diethyl-N-[6-(imidazo[1,2-a]pyrimidin-3-ylsulphanyl)-1,3-benzothiazol-2-yl]glycinamide]
9 | < 1000 nM | > 260 °C | < 500 nM | < 100 nM | Nc1nc2ccc(Sc3cnc4ncccn34)cc2s1 [Example 1, 6-(imidazo[1,2-a]pyrimidin-3-ylsulphanyl)-1,3-benzothiazol-2-amine]
10 | < 1000 nM | 225 °C | < 100 nM | < 100 nM | COCCC(=O)Nc1nc2ccc(Sc3cnc4ncccn34)cc2s1 [Example 20, N-[6-(imidazo[1,2-a]pyrimidin-3-ylsulphanyl)-1,3-benzothiazol-2-yl]-3-methoxypropanamide]
11 | < 1000 nM | > 260 °C | < 100 nM | < 100 nM | O=C(Nc1nc2cc(F)c(Sc3cnc4ncccn34)cc2s1)C1CC1 [Example 18, N-[5-fluoro-6-(imidazo[1,2-a]pyrimidin-3-ylsulphanyl)-1,3-benzothiazol-2-yl]cyclopropanecarboxamide]
12 | < 1000 nM | 247 °C | < 100 nM | < 100 nM | O=C(CCN1CCCC1)Nc1nc2ccc(Sc3cnc4ncccn34)cc2s1 [Example 8, N-[6-(imidazo[1,2-a]pyrimidin-3-ylsulphanyl)-1,3-benzothiazol-2-yl]-3-(pyrrolidin-1-yl)propanamide]
13 | < 1000 nM | 224 °C | < 100 nM | < 100 nM | O=C(CN1CCN(C2CC2)CC1)Nc1nc2ccc(Sc3cnc4ncccn34)cc2s1 [Example 16, 2-(4-cyclopropylpiperazin-1-yl)-N-[6-(imidazo[1,2-a]pyrimidin-3-ylsulphanyl)-1,3-benzothiazol-2-yl]acetamide]
